From patent publication US12185726B2, “Method for efficiently collecting and purifying Orobanche cumana (O. cumana) germination stimulants using aeroponic system and solid-phase extraction (SPE)” (ZHEJIANG UNIVERSITY, priority 2019, dated 2025)

Assays:
[1] = system: O. cumana seeds; details: at nanomolar and micromolar concentrations; sunflower root exudates; cited from earlier work
[2] = system: O. cumana; experiment: Biological activities of the four O. cumana germination stimulants detected in stimulants collected under the aeroponic system (UHPLC-TQ-MS detection); design: species or system Orobanche cumana; details: collected sunflower root exudate stimulants
Source text: 7) The ultra-high performance liquid chromatograph-triple quadrupole mass spectrometry (UHPLC-TQ-MS) was adopted to separate and detect the components of obtained O. cumana germination stimulants. The O. cumana germination stimulants in sunflower root exudates were identified using ultra-high performance liquid chromatography-mass spectrometry (UHPLC-MS/MS), and analyzed using Micromass Quattro Premier XE tandem mass spectrometer (Waters, USA). The mass spectrometer was equipped with an electrospray ionization source (ESI) and combined with a UHPLC system. Chromatographic conditions: UHPLC C18 column (100 mm×2.1 mm, 1.7 μm), and mobile phase: water-methanol. Gradient elution process: 30% methanol for 1 min; 5 min of transition to 80% methanol, and holding at 80% methanol for 1 min; and 0.2 min of transition back to 30% methanol. The column was equilibrated in this solvent composition for 1.8 min before proceeding to the next run. Each run: 9 min; column temperature: 50° C.; flow rate: 0.4 mL/min; and injection volume: 30 μl. MS conditions: ESI, in positive ion scanning mode; gas flow rates of atomizer and desolventizing: 50|h^−1 and 800|h^−1, respectively; capillary voltage: 2.7 kV; extraction cone voltage: 20 V, source temperature: 120° C.; and desolventizing gas temperature: 450° C. 3.0×10^−3 mbar argon was used for collision to induce dissociation and fragmentation. The collision energy for each compound was optimized. Multiple response monitoring (MRM) scanning mode was adopted to search for O. cumana germination stimulants. Mass-to-charge ratio scan range data can be found in (Raupp & Spring 2013; Ueno et al. 2014). In this experiment, based on previous literature data, four types of O. cumana germination stimulants were selected for detection. Three are biologically-active sesquiterpenes isolated from O. cumana germination stimulants, namely, dehydrocostus lactone, costunolide, and 8-epixanthatin, and the remaining one is a non-sesquiterpene, namely, heliolactone.

| Compound | stimulation of the germination of O. cumana seeds [1] | biological activity as O. cumana germination stimulant [2] |
| --- | --- | --- |
| C=C1C(=O)O[C@@H]2C[C@H](C)C(/C=C/C(C)=O)=CC[C@H]12 [8-epixanthatin] | can stimulate the germination | high activities |
| C=C1C(=O)O[C@@H]2/C=C(\C)CC/C=C(\C)CC[C@@H]12 [costunolide] | can stimulate the germination | high activities |
| C=C1CC[C@H]2C(=C)CC[C@H]3C(=C)C(=O)O[C@@H]3[C@@H]12 [dehydrocostus lactone] | – | high activities |
| C=C1C(=O)O[C@@H]2C[C@H](C)C(CCC(C)=O)=CC[C@H]12 [tomentosin] | can stimulate the germination | – |
| heliolactone | – | very low activity |
